Data from the kinase profiling compilation of Christmann-Franck et al. (2016).
Several values for one entry are separate records, joined by “and”; a condition that tells them apart may be missing. Equal values may be shown once.

Tests used:
Experiment in all cases: radiometric filter-binding kinase assay, Kinase HotSpot
Conditions in all cases: compound 0.5 µM; ATP 10 µM
CDK2 CCNA2 (human) = CDK2 CCNA2 (human) (UniProt P24941+P20248)
BRAF (human) = BRAF (human) (UniProt P15056)
IKBKE (human) = IKBKE (human) (UniProt Q14164)
EPHB3 (human) = EPHB3 (human) (UniProt P54753)
MLTK (human) = MLTK (human) (UniProt Q9NYL2)
PAK6 (human) = PAK6 (human) (UniProt Q9NQU5)
STK4 (human) = STK4 (human) (UniProt Q13043)
FYN (human) = FYN (human) (UniProt P06241)
STK38 (human) = STK38 (human) (UniProt Q15208)
CSNK2A1 (human) = CSNK2A1 (human) (UniProt P68400)
Sequence of CSNK2A1 (human) (P68400 whole entry, looked up): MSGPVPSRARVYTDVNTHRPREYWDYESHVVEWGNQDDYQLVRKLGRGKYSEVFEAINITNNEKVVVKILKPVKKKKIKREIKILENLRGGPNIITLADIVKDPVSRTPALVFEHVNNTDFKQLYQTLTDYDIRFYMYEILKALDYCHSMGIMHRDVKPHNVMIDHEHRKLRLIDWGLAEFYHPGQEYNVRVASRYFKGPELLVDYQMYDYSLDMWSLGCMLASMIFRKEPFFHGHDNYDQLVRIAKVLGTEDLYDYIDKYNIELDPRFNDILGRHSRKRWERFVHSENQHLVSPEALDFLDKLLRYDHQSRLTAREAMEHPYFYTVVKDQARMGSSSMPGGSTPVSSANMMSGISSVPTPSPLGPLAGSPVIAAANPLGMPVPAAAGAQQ

JAK3 JH1 JH2 (human) = JAK3 JH1 JH2 (human) (UniProt P52333)
Sequence of JAK3 JH1 JH2 (human) (P52333 whole entry, looked up): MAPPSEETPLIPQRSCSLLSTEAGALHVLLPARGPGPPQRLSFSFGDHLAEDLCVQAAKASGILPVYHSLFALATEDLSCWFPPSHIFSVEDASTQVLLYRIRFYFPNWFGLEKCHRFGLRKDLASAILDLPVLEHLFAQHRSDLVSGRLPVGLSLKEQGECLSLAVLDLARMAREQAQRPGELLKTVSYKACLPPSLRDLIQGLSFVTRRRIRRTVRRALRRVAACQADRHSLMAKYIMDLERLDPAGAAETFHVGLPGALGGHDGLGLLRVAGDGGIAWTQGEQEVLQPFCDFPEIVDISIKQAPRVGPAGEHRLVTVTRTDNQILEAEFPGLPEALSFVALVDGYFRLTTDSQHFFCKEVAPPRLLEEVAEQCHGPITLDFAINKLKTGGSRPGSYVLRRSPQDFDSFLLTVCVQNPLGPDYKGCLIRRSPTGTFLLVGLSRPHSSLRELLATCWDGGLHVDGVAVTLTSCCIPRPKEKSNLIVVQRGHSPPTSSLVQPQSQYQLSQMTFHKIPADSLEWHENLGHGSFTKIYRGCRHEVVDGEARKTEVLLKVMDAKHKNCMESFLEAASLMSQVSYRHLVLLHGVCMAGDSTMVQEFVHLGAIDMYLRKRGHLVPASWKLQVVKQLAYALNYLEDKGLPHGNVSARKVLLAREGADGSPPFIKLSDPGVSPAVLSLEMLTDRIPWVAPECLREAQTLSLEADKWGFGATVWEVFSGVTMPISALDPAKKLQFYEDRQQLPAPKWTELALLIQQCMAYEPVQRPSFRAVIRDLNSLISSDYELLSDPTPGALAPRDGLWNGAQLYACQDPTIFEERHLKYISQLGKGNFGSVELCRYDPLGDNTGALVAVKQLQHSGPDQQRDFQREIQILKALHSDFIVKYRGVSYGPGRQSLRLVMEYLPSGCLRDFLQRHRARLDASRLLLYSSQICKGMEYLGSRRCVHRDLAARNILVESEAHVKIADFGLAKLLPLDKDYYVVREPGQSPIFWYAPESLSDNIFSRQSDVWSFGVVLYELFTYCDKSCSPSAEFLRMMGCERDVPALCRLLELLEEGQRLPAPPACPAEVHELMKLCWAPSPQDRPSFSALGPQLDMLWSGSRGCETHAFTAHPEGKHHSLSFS

PHKG2 (human) = PHKG2 (human) (UniProt P15735)
Sequence of PHKG2 (human) (P15735 whole entry, looked up): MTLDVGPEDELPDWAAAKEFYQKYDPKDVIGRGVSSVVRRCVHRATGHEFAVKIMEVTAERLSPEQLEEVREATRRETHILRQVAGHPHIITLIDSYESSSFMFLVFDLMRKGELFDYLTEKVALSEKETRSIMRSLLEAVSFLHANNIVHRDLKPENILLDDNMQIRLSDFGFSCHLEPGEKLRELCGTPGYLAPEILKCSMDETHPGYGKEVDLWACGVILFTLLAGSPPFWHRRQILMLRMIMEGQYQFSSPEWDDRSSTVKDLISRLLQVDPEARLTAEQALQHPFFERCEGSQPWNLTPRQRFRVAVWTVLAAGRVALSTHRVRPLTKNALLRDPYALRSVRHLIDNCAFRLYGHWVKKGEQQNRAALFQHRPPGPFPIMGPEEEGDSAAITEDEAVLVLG

PRKCA (human) = PRKCA (human) (UniProt P17252)
MAP4K4 (human) = MAP4K4 (human) (UniProt O95819)
MAP3K8 (human) = MAP3K8 (human) (UniProt P41279)
MAP4K5 (human) = MAP4K5 (human) (UniProt Q9Y4K4)
HCK (human) = HCK (human) (UniProt P08631)
PRKACG (human) = PRKACG (human) (UniProt P22612)
Sequence of PRKACG (human) (P22612 whole entry, looked up): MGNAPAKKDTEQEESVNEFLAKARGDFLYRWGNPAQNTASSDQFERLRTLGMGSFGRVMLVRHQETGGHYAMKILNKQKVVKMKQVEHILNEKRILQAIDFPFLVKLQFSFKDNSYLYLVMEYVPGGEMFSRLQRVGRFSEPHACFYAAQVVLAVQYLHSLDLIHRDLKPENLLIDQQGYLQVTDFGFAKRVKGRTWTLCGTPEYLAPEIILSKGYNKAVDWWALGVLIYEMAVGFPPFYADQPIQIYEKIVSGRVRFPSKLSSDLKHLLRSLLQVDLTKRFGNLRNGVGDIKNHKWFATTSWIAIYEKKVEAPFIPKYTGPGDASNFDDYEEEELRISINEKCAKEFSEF

MST1R (human) = MST1R (human) (UniProt Q04912)
AURKA (human) = AURKA (human) (UniProt O14965)
EPHB2 (human) = EPHB2 (human) (UniProt P29323)
LCK (human) = LCK (human) (UniProt P06239)
MAP2K1 (human) = MAP2K1 (human) (UniProt Q02750)
EPHA6 (human) = EPHA6 (human) (UniProt Q9UF33)
PRKCB1 (human) = PRKCB1 (human) (UniProt P05771)
AURKC (human) = AURKC (human) (UniProt Q9UQB9)
CSNK1E (human) = CSNK1E (human) (UniProt P49674)
NEK3 (human) = NEK3 (human) (UniProt P51956)
Sequence of NEK3 (human) (P51956 whole entry, looked up): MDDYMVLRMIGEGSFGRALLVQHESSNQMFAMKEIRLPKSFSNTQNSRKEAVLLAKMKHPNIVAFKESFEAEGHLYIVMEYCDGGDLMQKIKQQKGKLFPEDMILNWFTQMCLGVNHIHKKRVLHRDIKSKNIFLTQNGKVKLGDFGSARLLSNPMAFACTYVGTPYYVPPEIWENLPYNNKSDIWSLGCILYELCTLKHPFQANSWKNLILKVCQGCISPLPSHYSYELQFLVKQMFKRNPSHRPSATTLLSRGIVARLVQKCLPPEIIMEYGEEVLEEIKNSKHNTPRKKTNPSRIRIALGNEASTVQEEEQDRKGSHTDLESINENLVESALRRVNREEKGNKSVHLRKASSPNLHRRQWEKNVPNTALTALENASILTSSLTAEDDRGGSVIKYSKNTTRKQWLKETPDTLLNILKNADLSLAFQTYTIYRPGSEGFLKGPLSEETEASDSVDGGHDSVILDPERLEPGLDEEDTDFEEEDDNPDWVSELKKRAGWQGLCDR

IRAK4 (human) = IRAK4 (human) (UniProt Q9NWZ3)
CDK4 CCND3 (human) = CDK4 CCND3 (human) (UniProt P30281+P11802)
MARK1 (human) = MARK1 (human) (UniProt Q9P0L2)
TLK2 (human) = TLK2 (human) (UniProt Q86UE8)
CAMK1G (human) = CAMK1G (human) (UniProt Q96NX5)
LYN (human) = LYN (human) (UniProt P07948)
MINK1 (human) = MINK1 (human) (UniProt Q8N4C8)
STK11 (human) = STK11 (human) (UniProt Q15831)
Sequence of STK11 (human) (Q15831 whole entry, looked up): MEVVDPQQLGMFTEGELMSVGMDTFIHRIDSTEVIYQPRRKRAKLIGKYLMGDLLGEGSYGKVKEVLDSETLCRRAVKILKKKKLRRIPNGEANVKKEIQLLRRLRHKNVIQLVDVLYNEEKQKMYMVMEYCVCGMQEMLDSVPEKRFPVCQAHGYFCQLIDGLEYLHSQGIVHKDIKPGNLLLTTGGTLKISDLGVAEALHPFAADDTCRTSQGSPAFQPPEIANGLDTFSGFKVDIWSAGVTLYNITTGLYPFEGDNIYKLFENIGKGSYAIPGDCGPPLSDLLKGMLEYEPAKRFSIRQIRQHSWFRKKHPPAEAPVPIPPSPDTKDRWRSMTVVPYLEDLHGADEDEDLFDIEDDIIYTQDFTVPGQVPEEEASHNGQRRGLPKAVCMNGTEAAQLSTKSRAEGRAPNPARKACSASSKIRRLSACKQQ

CDK4 CCND1 (human) = CDK4 CCND1 (human) (UniProt P24385+P11802)
CAMKK2 (human) = CAMKK2 (human) (UniProt Q96RR4)
DSTYK (human) = DSTYK (human) (UniProt Q6XUX3)
MYO3B (human) = MYO3B (human) (UniProt Q8WXR4)
Sequence of MYO3B (human) (Q8WXR4 whole entry, looked up): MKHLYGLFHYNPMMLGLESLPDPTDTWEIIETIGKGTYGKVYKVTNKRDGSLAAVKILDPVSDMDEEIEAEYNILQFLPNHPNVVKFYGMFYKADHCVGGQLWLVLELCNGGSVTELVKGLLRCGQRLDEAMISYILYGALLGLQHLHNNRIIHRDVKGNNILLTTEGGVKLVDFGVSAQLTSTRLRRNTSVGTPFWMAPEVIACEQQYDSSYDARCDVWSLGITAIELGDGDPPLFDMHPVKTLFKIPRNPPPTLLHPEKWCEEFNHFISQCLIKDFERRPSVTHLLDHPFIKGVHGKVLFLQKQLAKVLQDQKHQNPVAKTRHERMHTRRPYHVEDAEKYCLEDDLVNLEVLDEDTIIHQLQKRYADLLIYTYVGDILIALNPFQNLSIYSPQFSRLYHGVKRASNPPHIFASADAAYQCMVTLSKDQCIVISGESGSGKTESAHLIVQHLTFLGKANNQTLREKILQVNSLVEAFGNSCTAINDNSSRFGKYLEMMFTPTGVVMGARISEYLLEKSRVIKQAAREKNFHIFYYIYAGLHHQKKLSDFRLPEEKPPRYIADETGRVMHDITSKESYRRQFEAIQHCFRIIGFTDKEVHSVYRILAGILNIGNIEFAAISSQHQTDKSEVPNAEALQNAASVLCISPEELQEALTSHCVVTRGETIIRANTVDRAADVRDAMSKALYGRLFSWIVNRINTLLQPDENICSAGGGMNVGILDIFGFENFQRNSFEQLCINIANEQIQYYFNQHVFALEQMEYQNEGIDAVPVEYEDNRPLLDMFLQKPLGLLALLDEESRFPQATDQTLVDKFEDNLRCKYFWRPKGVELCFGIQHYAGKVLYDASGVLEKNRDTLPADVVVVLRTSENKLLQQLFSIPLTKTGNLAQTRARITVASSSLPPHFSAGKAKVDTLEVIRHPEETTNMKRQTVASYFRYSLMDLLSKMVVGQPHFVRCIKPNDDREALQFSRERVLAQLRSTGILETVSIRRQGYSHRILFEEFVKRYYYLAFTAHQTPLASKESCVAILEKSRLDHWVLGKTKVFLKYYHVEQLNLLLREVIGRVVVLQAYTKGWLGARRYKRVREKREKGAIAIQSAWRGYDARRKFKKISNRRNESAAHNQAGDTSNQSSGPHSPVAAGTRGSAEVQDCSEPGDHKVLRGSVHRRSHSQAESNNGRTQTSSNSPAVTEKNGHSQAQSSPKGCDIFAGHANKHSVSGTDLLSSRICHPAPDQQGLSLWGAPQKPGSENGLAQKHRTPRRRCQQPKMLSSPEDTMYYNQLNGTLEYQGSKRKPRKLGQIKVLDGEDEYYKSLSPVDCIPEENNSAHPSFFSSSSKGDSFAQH

ULK3 (human) = ULK3 (human) (UniProt Q6PHR2)

Sequence of CDK2 CCNA2 (human) (P20248 whole entry, looked up, other chains not shown): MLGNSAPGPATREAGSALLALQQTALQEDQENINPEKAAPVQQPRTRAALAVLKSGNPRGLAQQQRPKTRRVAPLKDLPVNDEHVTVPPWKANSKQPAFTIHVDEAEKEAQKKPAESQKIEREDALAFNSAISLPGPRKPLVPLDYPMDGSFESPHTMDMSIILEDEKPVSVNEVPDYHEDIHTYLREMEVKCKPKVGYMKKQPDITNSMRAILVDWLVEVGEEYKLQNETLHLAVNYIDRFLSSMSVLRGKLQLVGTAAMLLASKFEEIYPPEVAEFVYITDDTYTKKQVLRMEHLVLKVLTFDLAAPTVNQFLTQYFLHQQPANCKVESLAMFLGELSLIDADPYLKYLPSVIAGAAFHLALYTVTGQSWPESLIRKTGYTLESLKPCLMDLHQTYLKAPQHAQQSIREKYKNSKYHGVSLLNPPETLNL

For `O=C1NC(=O)c2cc(Nc3ccc(F)cc3)c(Nc3ccc(F)cc3)cc21`, the residual activity (CDK2 CCNA2 (human)) was 95.3%, the residual activity (BRAF (human)) was 94.2% and the residual activity (IKBKE (human)) was 100%. It also gave a residual activity (EPHB3 (human)) of 94.7%, a residual activity (MLTK (human)) of 94.5% and a residual activity (PAK6 (human)) of 106%. For the same compound, the residual activity (STK4 (human)) was 101%, the residual activity (FYN (human)) was 99.4% and the residual activity (STK38 (human)) was 85.5%. For the same compound, the residual activity (CSNK2A1 (human)) was 95.7%, the residual activity (JAK3 JH1 JH2 (human)) was 93.9% and the residual activity (PHKG2 (human)) was 97.1%. It also gave a residual activity (PRKCA (human)) of 99.3%, a residual activity (MAP4K4 (human)) of 91.2% and a residual activity (MAP3K8 (human)) of 96.3%. The residual activity (MAP4K5 (human)) was 89.5%, the residual activity (HCK (human)) was 88.3% and the residual activity (PRKACG (human)) was 101%. The residual activity (MST1R (human)) was 100%, the residual activity (AURKA (human)) was 92.7% and the residual activity (EPHB2 (human)) was 89.3%. It also gave a residual activity (LCK (human)) of 98.4%, a residual activity (MAP2K1 (human)) of 103% and a residual activity (EPHA6 (human)) of 66.8%. The residual activity (PRKCB1 (human)) was 28.2%, the residual activity (AURKC (human)) was 90.8% and the residual activity (CSNK1E (human)) was 98%. For the same compound, the residual activity (NEK3 (human)) was 99.1%, the residual activity (IRAK4 (human)) was 98.1% and the residual activity (CDK4 CCND3 (human)) was 99%. For the same compound, the residual activity (MARK1 (human)) was 98.9%, the residual activity (TLK2 (human)) was 93.5% and the residual activity (CAMK1G (human)) was 106%. The residual activity (LYN (human)) was 97.8% and 98.7%, the residual activity (MINK1 (human)) was 99% and the residual activity (STK11 (human)) was 98.2%. It also gave a residual activity (CDK4 CCND1 (human)) of 101%, a residual activity (CAMKK2 (human)) of 88.3% and a residual activity (DSTYK (human)) of 95.6%. The residual activity (MYO3B (human)) was 98.2% and the residual activity (ULK3 (human)) was 96.3%.
`COc1cc2c(Nc3ccc(Br)cc3F)ncnc2cc1OCC1CCN(C)CC1` was tested, and the residual activity (CDK2 CCNA2 (human)) was 94.6%, the residual activity (BRAF (human)) was 94.8% and the residual activity (IKBKE (human)) was 85.8%. The residual activity (EPHB3 (human)) was 77.4%, the residual activity (PAK6 (human)) was 105% and the residual activity (STK4 (human)) was 103%. It also gave a residual activity (FYN (human)) of 48.2%, a residual activity (STK38 (human)) of 100% and a residual activity (CSNK2A1 (human)) of 112%. It also gave a residual activity (JAK3 JH1 JH2 (human)) of 96%, a residual activity (PHKG2 (human)) of 99.1% and a residual activity (PRKCA (human)) of 97.1%. For the same compound, the residual activity (MAP4K4 (human)) was 79.8%, the residual activity (MAP3K8 (human)) was 97.3% and the residual activity (MAP4K5 (human)) was 37.1%. It also gave a residual activity (PRKACG (human)) of 106%, a residual activity (MST1R (human)) of 93.6% and a residual activity (EPHB2 (human)) of 24.4%. For the same compound, the residual activity (MAP2K1 (human)) was 105%, the residual activity (EPHA6 (human)) was 3.27% and the residual activity (PRKCB1 (human)) was 89.1%. The residual activity (NEK3 (human)) was 103%, the residual activity (IRAK4 (human)) was 35.3% and the residual activity (CDK4 CCND3 (human)) was 101%. It also gave a residual activity (MARK1 (human)) of 83.7%, a residual activity (TLK2 (human)) of 79.7% and a residual activity (CAMK1G (human)) of 101%. The residual activity (LYN (human)) was 10.8% and 16.7%, the residual activity (MINK1 (human)) was 81.5% and the residual activity (STK11 (human)) was 105%. For the same compound, the residual activity (CDK4 CCND1 (human)) was 94.8%, the residual activity (CAMKK2 (human)) was 102% and the residual activity (DSTYK (human)) was 96%. It also gave a residual activity (MYO3B (human)) of 84.2% and a residual activity (ULK3 (human)) of 105%.
For `N#C/C(=C1/Nc2ccccc2S1)c1ccnc(NCCc2cccnc2)n1`, the residual activity (CDK2 CCNA2 (human)) was 94.4%, the residual activity (BRAF (human)) was 96.6% and the residual activity (IKBKE (human)) was 90.3%. It also gave a residual activity (EPHB3 (human)) of 91%, a residual activity (MLTK (human)) of 90.4% and a residual activity (PAK6 (human)) of 97.6%. The residual activity (STK4 (human)) was 92.2%, the residual activity (FYN (human)) was 93.1% and the residual activity (STK38 (human)) was 100%. For the same compound, the residual activity (CSNK2A1 (human)) was 22.1%, the residual activity (JAK3 JH1 JH2 (human)) was 106% and the residual activity (PHKG2 (human)) was 99.5%. For the same compound, the residual activity (PRKCA (human)) was 94.3%, the residual activity (MAP4K4 (human)) was 87.1% and the residual activity (MAP3K8 (human)) was 96%. For the same compound, the residual activity (MAP4K5 (human)) was 87.5%, the residual activity (HCK (human)) was 92.2% and the residual activity (PRKACG (human)) was 101%. For the same compound, the residual activity (MST1R (human)) was 93.5%, the residual activity (AURKA (human)) was 83.8% and the residual activity (EPHB2 (human)) was 112%. The residual activity (LCK (human)) was 98.3%, the residual activity (MAP2K1 (human)) was 93.2% and the residual activity (EPHA6 (human)) was 87.1%. For the same compound, the residual activity (PRKCB1 (human)) was 90.8%, the residual activity (AURKC (human)) was 96% and the residual activity (CSNK1E (human)) was 74.9%. It also gave a residual activity (NEK3 (human)) of 87.9%, a residual activity (IRAK4 (human)) of 83.7% and a residual activity (CDK4 CCND3 (human)) of 85.7%. It also gave a residual activity (MARK1 (human)) of 97.6%, a residual activity (TLK2 (human)) of 102% and a residual activity (CAMK1G (human)) of 92.3%. For the same compound, the residual activity (LYN (human)) was 96.2% and 96.4%, the residual activity (MINK1 (human)) was 93.3% and the residual activity (STK11 (human)) was 79.4%. It also gave a residual activity (CDK4 CCND1 (human)) of 90.4%, a residual activity (CAMKK2 (human)) of 80.4% and a residual activity (DSTYK (human)) of 93.4%. For the same compound, the residual activity (MYO3B (human)) was 96.1% and the residual activity (ULK3 (human)) was 99.1%.
